According to article PMC3407927, “Cyclisation Increases the Stability of the Sea Anemone Peptide APETx2 but Decreases Its Activity at Acid-Sensing Ion Channel 3” (Marine Drugs, 2012):
Where a SMILES comes first, the peptide text is derived from it. Bridges are numbered along the chain shown (N, C = ends). Where no end group is shown, it is not given here.

Key:
rat ASIC3 = target: T1, rat ASIC3 (Rattus norvegicus, UniProt O35240); test: Two-electrode voltage-clamp electrophysiology on Xenopus laevis oocytes expressing homomeric rat ASIC3; type: cell-based; settings: n = 6
T1 construct: expressed in transfected cells; host or cells: Xenopus laevis oocytes (cRNA injection)
T1 sequence (O35240 1-533): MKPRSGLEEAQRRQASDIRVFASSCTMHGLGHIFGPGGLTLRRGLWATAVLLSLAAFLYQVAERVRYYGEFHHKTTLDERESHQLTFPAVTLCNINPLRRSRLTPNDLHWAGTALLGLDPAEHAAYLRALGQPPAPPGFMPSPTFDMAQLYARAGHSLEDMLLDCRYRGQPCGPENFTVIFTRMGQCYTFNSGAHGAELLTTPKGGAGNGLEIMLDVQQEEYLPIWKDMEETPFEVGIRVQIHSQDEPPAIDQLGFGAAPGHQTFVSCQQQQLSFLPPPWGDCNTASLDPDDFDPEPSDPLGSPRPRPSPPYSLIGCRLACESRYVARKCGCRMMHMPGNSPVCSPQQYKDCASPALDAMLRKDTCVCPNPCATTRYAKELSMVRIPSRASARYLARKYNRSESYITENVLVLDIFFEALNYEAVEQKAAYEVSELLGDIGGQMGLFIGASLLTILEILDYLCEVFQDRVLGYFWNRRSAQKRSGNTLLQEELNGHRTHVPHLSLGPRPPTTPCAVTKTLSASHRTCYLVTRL
Description: The biological activity of wild-type APETx2 was compared with that of truncations and cyclic analogues using voltage-clamp electrophysiology experiments on Xenopus laevis oocytes expressing homomeric rat ASIC3. […] At 1000 nM, a concentration of APETx2 that normally causes >90% inhibition of ASIC3 [18], all three cyclic analogues had little activity (~10% inhibition, n = 6) (Figure 5). Although a full concentration-effect curve was not obtained, there is an approximate 125-fold decrease in activity for all three cyclic analogues based on the concentration that causes 10% inhibition (~8 nM for wild-type APETx2 vs. 1000 nM for cyclic APETx2).
Oocytes were obtained from Xenopus laevis frogs and treated with collagenase (Sigma type I) for defolliculation. cRNA of rat ASIC3 was synthesised using an mMessage mMachine cRNA transcription kit and healthy stage V–VI oocytes injected with 4 ng rat ASIC3 cRNA (40 nL of 100 ng/μL). Oocytes were kept at 17 °C in ND96 solution (96 mM NaCl, 2 mM KCl, 1 mM CaCl2, 2 mM MgCl2, 5 mM HEPES, 5 mM pyruvic acid, 50 µg/mL gentamicin, 2.5% fetal horse serum, pH 7.4). Membrane currents were recorded 2–6 days post cRNA injection under voltage-clamp (Axoclamp 900 A amplifier, Molecular Devices, Sunnyvale, CA, USA) using two standard glass microelectrodes with resistances of 0.5–1 MΩ when filled with 3 M KCl solution. […]

trypsin = test: Trypsin stability assay; type: in vitro ADME; settings: 5 mM EDTA, pH 8.0, 20 μM peptide, 37 °C, RP-HPLC; for Trypsin stability assay: half-life / half-life at 20 μM: 1 μg trypsin in 500 μL 20 mM Tris, samples 0-48 h, each time point in triplicate
Description: The following protocol was modified from a previous published method: Wild-type APETx2 and cyclic analogues were diluted into 500 μL trypsin buffer (20 mM Tris, 5 mM EDTA, pH 8.0) to a final concentration of 20 μM. Reactions were started by adding 1 μg trypsin to each sample. A 35-μL sample was used for each time point and quenched by mixing with 35 μL 0.2% TFA. Protease digestion was monitored using analytical RP-HPLC. Reactions were incubated at 37 °C and samples were taken at 0, 0.5, 1, 2, 4, 12, 24 and 48 h. All time points were investigated in triplicate.

pepsin [1] = target: T2, pepsin (Sus scrofa, UniProt P00791); test: Simulated gastric fluid (SGF) stability assay; type: in vitro ADME; settings: 20 μM peptide, RP-HPLC
T2 construct: purchased Sigma Aldrich
Description: (§1) The following protocol was modified from a published method: Wild-type APETx2 and cyclic analogues were separately diluted into 350 μL SGF (6.2 mg/mL pepsin, 30 mM NaCl, pH 1.9) to a final peptide concentration of 20 μM. Reactions were started with the addition of the peptides and the mixtures were incubated at 37 °C. 35-μL samples were taken at 0, 15, 30, 45, 60, 120, 240 and 480 min and mixed with 5 μL pepstatin A to quench the reaction (3.3 mg/mL dissolved in ethanol). Progress was monitored using RP-HPLC and each time point was investigated in triplicate.

pepsin [2] = tested on: T3, pepsin; test: Simulated gastric fluid (SGF) stability assay; type: in vitro ADME; settings: simulated gastric fluid (SGF) with pepsin; SGF: 6.2 mg/mL pepsin, 30 mM NaCl, pH 1.9; 20 μM peptide; 37 °C; samples 0-480 min; RP-HPLC; each time point in triplicate
T3 construct: purchased Sigma Aldrich
Description: as §1

[3] = Solution stability under lab storage conditions; type: physicochemical; settings: dissolved in water and kept at 4 °C; unpublished observations

T2 sequence (P00791 60-385): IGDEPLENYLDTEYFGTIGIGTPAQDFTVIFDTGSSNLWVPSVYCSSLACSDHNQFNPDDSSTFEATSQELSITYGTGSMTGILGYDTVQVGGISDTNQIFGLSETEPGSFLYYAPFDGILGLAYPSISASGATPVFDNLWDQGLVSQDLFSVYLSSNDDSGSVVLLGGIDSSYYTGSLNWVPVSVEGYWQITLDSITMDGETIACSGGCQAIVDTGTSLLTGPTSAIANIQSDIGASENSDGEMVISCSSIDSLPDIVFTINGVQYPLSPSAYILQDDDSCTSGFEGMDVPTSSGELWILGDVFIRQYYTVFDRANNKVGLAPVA

CC[C@H](C)[C@@H]1NC(=O)CNC(=O)[C@H](CCCCN)NC(=O)[C@H](CO)NC(=O)[C@H](CC(N)=O)NC(=O)CNC(=O)[C@@H]2CSSC[C@@H]3NC(=O)[C@H](CO)NC(=O)CNC(=O)[C@H]([C@@H](C)O)NC(=O)[C@H](Cc4ccc(O)cc4)NC(=O)CNC(=O)[C@H](CCCNC(=N)N)NC(=O)[C@H](CC(=O)O)NC(=O)[C@H]([C@@H](C)O)NC(=O)[C@@H]4CCCN4C(=O)[C@H](CSSC[C@@H](C(=O)N[C@H](C(=O)N4CCC[C@H]4C(=O)N[C@@H](C)C(=O)N[C@@H](CC(=O)O)C(=O)O)[C@@H](C)O)NC(=O)[C@H](CSSC[C@H](NC(=O)[C@H](C)N)C(=O)N[C@@H](CO)C(=O)N2)NC(=O)[C@H]([C@@H](C)O)NC(=O)CNC(=O)[C@H](CC(C)C)NC(=O)[C@H](Cc2ccccc2)NC(=O)[C@H](Cc2ccc(O)cc2)NC(=O)[C@H](CCCNC(=N)N)NC3=O)NC(=O)[C@H](CO)NC(=O)[C@@H]2CCCN2C(=O)[C@H](CCCNC(=N)N)NC(=O)[C@H](Cc2ccc(O)cc2)NC(=O)[C@H](Cc2ccccc2)NC(=O)[C@H](Cc2c[nH]c3ccccc23)NC(=O)[C@H](Cc2ccc(O)cc2)NC1=O [APETx2_3–42] (H-ACSCGNSKGIYWFYRPSCPTDRGYTGSCRYFLGTCCTPAD-OH; disulfide 2-35, 4-28, 18-36)
inhibition at 3 µM (rat ASIC3; 3 μM peptide, rat ASIC3 in Xenopus oocytes, read-out: inhibition of ASIC3 currents at 3 μM): ~13%

GTACSCGNSKGIYWFYRPSCPTDRGYTGSCRYFLGTCCTPAD (disulfide 4-37, 6-30, 20-38) [APETx2_wt, APETx2]
IC50 (rat ASIC3; Xenopus oocytes, clamped at −60 mV, pH 6 stimulus, ND96 with 0.1% BSA, RT, read-out: IC50 for inhibition of rASIC3 currents): 61 nM
Trypsin stability assay: half-life (trypsin): 2.8 h
Trypsin stability assay: half-life (trypsin; listed as wild-type APETx2): ~ 2.8 h
remaining at 48 h, 20 μM (trypsin; trypsin in Tris/EDTA buffer, 48 h, 1 μg trypsin, 20 mM Tris, triplicate, read-out: peptide remaining intact after 48 h in the presence of trypsin): ~4%
time within which peptide is almost totally digested in simulated gastric fluid (pepsin [1]; SGF 6.2 mg/mL pepsin, pH 1.9, 37 °C): ≤ 20 min
Simulated gastric fluid stability assay: half-life (pepsin [1]; SGF: 6.2 mg/mL pepsin, 30 mM NaCl, pH 1.9, 37 °C, samples 0-480 min, each time point in triplicate): 5 min
half-life at 20 μM (pepsin [2]): ~5 min
solution stability under lab storage conditions [3]: stable for months

cyclo(ACSCGNSKGIYWFYRPSCPTDRGYTGSCRYFLGTCCTPADAGASGSAGT) (disulfide 2-35, 4-28, 18-36) [cAPETx2_7RL]
half-life at 20 μM (trypsin; trypsin in Tris/EDTA buffer): 5.58 days
half-life at 20 μM (pepsin [2]): 165 min

cyclo(ACSCGNSKGIYWFYRPSCPTDRGYTGSCRYFLGTCCTPADGASGSAGT) (disulfide 2-35, 4-28, 18-36) [cAPETx2_6RL]
half-life at 20 μM (trypsin; trypsin in Tris/EDTA buffer): 4.33 days
half-life at 20 μM (pepsin [2]): 114 min

cyclo(ACSCGNSKGIYWFYRPSCPTDRGYTGSCRYFLGTCCTPADSAGASGSAGT) (disulfide 2-35, 4-28, 18-36) [cAPETx2_8RL]
half-life at 20 μM (trypsin; trypsin in Tris/EDTA buffer): 5.46 days
half-life at 20 μM (pepsin [2]): 100 min
